According to paper PMC6287396, “Hyperactivation of Oncogenic JAK3 Mutants Depend on ATP Binding to the Pseudokinase Domain” (Frontiers in Oncology, 2018):

Key:
JAK3 JH2 [1] = molecular target: T1, JAK3 JH2 (Homo sapiens, UniProt P52333); assay: MANT-ATP binding assay (steady-state FRET)
T1 construct: JAK3 JH2 (residues 511–790) was cloned into the pFASTBAC1 vector (Invitrogen) with a C-terminal His6 tag; His6 (C); made in house; host or cells: Spodoptera frugiperda (Sf9) insect cells, baculovirus (pFASTBAC1)
T1 sequence (P52333 511-790): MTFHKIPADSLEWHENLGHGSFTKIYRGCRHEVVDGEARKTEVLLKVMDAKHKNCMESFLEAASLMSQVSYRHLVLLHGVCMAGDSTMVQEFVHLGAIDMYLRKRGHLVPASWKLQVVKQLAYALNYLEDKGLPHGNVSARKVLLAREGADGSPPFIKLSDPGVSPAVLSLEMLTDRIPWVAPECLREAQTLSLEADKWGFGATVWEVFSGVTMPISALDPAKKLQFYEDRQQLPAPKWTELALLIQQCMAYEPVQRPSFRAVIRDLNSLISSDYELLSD
Description: The steady-state fluorescence of MANT-labeled ATP was measured as described in Mysore et al. ([34]). Briefly, the fluorescently labeled MANT (2′/3′-(N-methyl-anthraniloyl)-ATP was titrated against 1.5 μM recombinant JAK3 JH2. In addition, the protein was titrated as 0, 0.05, 0.25, 1.25, and […] against 0.25 μM MANT-ATP. FRET signal was measured with QuantaMaster PTI Fluorometer and the data was analyzed using GraphPad Prism version 5.02 and Microsoft Excel. Protein titrations were done in duplicate and in MANT-ATP titration in triplicate.

JAK1 JH2 [2] = molecular target: T2, JAK1 JH2; parameters: method as in PMID 25825724; conditions: JAK1 JH2, with MgCl2; read-out: Kd (MANT-ATP); cited from earlier work
T2 construct: Recombinant JAK1 JH2 553-836-His; His (C)

TYK2 JH2 [3] = molecular target: T3, TYK2 JH2; parameters: method as in PMID 26359499; conditions: TYK2 JH2, with MgCl2; read-out: Kd (MANT-ATP); cited from earlier work
T3 construct: TYK2 JH2 564-876-His proteins; His (C)

JAK2 JH2 [4] = molecular target: T4, JAK2 JH2; parameters: method as in PMID 25825724; conditions: JAK2 JH2, with MgCl2; read-out: Kd (MANT-ATP); cited from earlier work
T4 construct: JAK2 JH2 503-827-His; His (C)

JAK3 JH2 [5] = molecular target: T1, JAK3 JH2; assay: Differential scanning fluorimetry (thermal shift); format: binding; conditions: for Effect of nucleotide on Tm (ΔTm): JAK3 JH2, nucleotide titration 0.2, 0.5, 1 mM
Description: (§1) Protein concentration of 3 μM was used for the measurement of the melting temperature (Tm). Reactions were done in the buffer used in the SEC. Addition of other components (ATP, salts) were taken into account by including 2X buffer, if needed. Signal arising from the fluorescent dye Life Technologies SYPRO^TM Orange Protein Gel Stain, 4X working solution from 5000X concentrate in DMSO) was measured with a conventional Real-Time PCR system (Bio-Rad CFX), 1°C per min from 4 to 96°C. Results were transferred and normalized in Microsoft Excel and the Tm was derived from the sigmoidal function using GraphPad Prism version 5.02 for Windows, GraphPad Software, La Jolla California USA, https://www.graphpad.com/.

TYK2 JH2 [6] = system: T3, TYK2 JH2; assay: Differential scanning fluorimetry (thermal shift); format: binding
Description: as §1

JAK2 JH2 [7] = system: T4, JAK2 JH2; assay: Differential scanning fluorimetry (thermal shift); format: binding
Description: as §1

JAK1 JH2 [8] = system: T2, JAK1 JH2; assay: Differential scanning fluorimetry (thermal shift); format: binding; conditions: JAK1 JH2, 1 mM ATP
Description: as §1

JAK3 JH2 511-790-His = molecular target: T5, JAK3 JH2 511-790-His (Homo sapiens, UniProt P52333); assay: Fluorescence polarization competition assay (ATP vs Bodipy FL JNJ-7706621 tracer); format: binding; conditions: JAK3 JH2, ATP competing with tracer, no MgCl2 added
T5 construct: JAK3 JH2 (residues 511–790) was cloned into the pFASTBAC1 vector (Invitrogen) with a C-terminal His6 tag; His6 (C); made in house; host or cells: Spodoptera frugiperda (Sf9) insect cells, baculovirus (pFASTBAC1)
T5 sequence (P52333 511-790): T1 sequence (P52333 511-790)
Description: (§2) Fluorescence polarization measurements were performed in black 384-well plates (ProxiPlate-384 F Plus, PerkinElmer) at sample volume of 5 μl/well on PerkinElmer Envision plate reader using 480 nm excitation and 535 nm emission filters. Fluorescent tracer, Bodipy FL labeled JNJ-7706621 [compound 5 in ([35])] was used at 1.5 nM concentration. Recombinant JAK1 JH2 553-836-His, JAK2 JH2 503-827-His, JAK3 JH2 511-790-His, and TYK2 JH2 564-876-His proteins were used at concentrations (2 nM JAK1, 150 nM JAK2, 1 μM JAK3, 20 nM TYK2) dependent on protein-tracer dissociation constants. The assays were performed in a buffer consisting of 20 mM Tris-HCl pH 8.0, 150 mM NaCl, 20% glycerol, 0.01% Brij-35, and 2 mM DTT. ATP was titrated at concentration range of 5 nM−5 μM and fluorescence polarization values obtained were fitted against log[ATP] in GraphPad Prism to yield IC50 values. Assays were performed in triplicate.

JAK2 JH2 503-827-His = molecular target: T6, JAK2 JH2 503-827-His (Homo sapiens, UniProt O60674); assay: as above; format: binding; conditions: JAK2 JH2, ATP competing with tracer, with MgCl2
T6 construct: JAK2 JH2 503-827-His; His (C)
T6 sequence (O60674 503-827): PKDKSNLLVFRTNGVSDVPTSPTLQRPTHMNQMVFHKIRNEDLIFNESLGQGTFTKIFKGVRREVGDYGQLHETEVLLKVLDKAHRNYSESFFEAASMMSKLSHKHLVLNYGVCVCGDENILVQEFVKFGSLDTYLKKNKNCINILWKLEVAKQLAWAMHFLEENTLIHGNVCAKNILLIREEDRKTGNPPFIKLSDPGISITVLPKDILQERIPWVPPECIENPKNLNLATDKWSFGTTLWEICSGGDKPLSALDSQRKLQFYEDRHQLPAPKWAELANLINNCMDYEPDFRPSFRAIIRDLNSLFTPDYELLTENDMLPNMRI
Description: as §2

TYK2 JH2 564-876-His = molecular target: T7, TYK2 JH2 564-876-His (Homo sapiens, UniProt P29597); assay: as above; format: binding; conditions: TYK2 JH2, ATP competing with tracer, with MgCl2
T7 construct: TYK2 JH2 564-876-His proteins; His (C)
T7 sequence (P29597 564-876): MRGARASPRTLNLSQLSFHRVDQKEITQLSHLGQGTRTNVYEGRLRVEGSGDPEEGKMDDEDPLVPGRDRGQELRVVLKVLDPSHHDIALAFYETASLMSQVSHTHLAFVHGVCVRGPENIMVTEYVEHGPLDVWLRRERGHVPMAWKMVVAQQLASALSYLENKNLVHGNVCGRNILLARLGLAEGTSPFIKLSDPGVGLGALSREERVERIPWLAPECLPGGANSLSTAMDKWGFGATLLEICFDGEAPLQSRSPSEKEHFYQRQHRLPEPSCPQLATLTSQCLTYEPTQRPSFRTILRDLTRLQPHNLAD
Description: as §2

JAK1 JH2 553-836-His = molecular target: T8, JAK1 JH2 553-836-His (Homo sapiens, UniProt P23458); assay: as above; format: binding; conditions: JAK1 JH2, ATP competing with tracer, with MgCl2
T8 construct: Recombinant JAK1 JH2 553-836-His; His (C)
T8 sequence (P23458 553-836): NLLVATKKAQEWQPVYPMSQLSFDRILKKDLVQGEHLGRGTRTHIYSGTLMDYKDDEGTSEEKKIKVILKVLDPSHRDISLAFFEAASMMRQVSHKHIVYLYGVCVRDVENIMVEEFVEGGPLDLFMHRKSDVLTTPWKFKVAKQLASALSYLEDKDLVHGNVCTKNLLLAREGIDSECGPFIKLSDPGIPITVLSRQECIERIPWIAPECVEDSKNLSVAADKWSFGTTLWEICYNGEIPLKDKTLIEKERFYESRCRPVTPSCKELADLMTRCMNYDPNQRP
Description: as §2

**Q.** What does the source list for “2′/3′-(N-methyl-anthraniloyl)-ATP [MANT-ATP]”?
**A.** fold tighter MANT-ATP binding of JAK3 JH2 compared to JAK1 JH2 (JAK3 JH2 [1]; JAK3 JH2 vs JAK1 JH2): 6 fold; fold tighter MANT-ATP binding of JAK3 JH2 compared to JAK2 JH2 (JAK3 JH2 [1]; JAK3 JH2 vs JAK2 JH2): 3 fold; fold tighter MANT-ATP binding of JAK3 JH2 compared to TYK2 JH2 (JAK3 JH2 [1]; JAK3 JH2 vs TYK2 JH2): 30 fold; Kd (JAK1 JH2 [2]): 3.1 µM; Kd (TYK2 JH2 [3]): 15 µM; Kd (JAK2 JH2 [4]): 1300 nM

**Q.** For Nc1ncnc2c1ncn2[C@@H]1O[C@H](COP(=O)(O)OP(=O)(O)O)[C@@H](O)[C@H]1O [ADP], which “Effect of nucleotide on Tm (ΔTm)” value (JAK3 JH2 [5]) is on record?
**A.** The value was “significantly reduced ΔTm compared to ATP”.

**Q.** With Nc1ncnc2c1ncn2[C@@H]1O[C@H](COP(=O)(O)O)[C@@H](O)[C@H]1O [AMP] as the molecule, how does the “Effect of nucleotide on Tm (ΔTm)” value (JAK3 JH2 [5]) read?
**A.** The value was “no effect on Tm”.

**Q.** Which “ΔTm (1 mM ATP)” value (TYK2 JH2 [6]; TYK2 JH2, 1 mM ATP) does the source give for Nc1ncnc2c1ncn2[C@@H]1O[C@H](COP(=O)(O)OP(=O)(O)OP(=O)(O)O)[C@@H](O)[C@H]1O [ATP] here?
**A.** Its value is 0.9 °C.

**Q.** What about the TmATP (TYK2 JH2 [6]; melting temperature of TYK2 JH2 with ATP) of the same molecule?
**A.** Its TmATP is 48 °C.

**Q.** What about the “ΔTm (1 mM ATP)” value (JAK2 JH2 [7]; JAK2 JH2, 1 mM ATP) of the same molecule?
**A.** The value was 4.9 °C.

**Q.** What about the TmATP (JAK2 JH2 [7]; melting temperature of JAK2 JH2 with ATP) of the same molecule?
**A.** The TmATP was 46 °C.

**Q.** What about the Kd (JAK3 JH2 [5]; 50 nM−1 mM ATP titrated to 3 μM JAK3 JH2, read-out: Kd approximated with DSF) of the same molecule?
**A.** The Kd was 40.4 ± 97.1 µM.

**Q.** And the ΔTm (JAK3 JH2 [5]; JAK3 JH2, 0.2 mM ATP)?
**A.** The ΔTm was 8 °C.

**Q.** And the TmATP (JAK3 JH2 [5]; melting temperature of JAK3 JH2 with ATP)?
**A.** Its TmATP is 41 °C.

**Q.** What about the “ΔTm (1 mM ATP)” value (JAK1 JH2 [8]) of the same molecule?
**A.** The value was 3.9 °C.

**Q.** And the IC50 (JAK3 JH2 511-790-His)?
**A.** Its IC50 is 16 µM.

**Q.** What about the IC50 (JAK2 JH2 503-827-His) of the same molecule?
**A.** Its IC50 is 102 µM.

**Q.** And the IC50 (TYK2 JH2 564-876-His)?
**A.** Its IC50 is 471 µM.

**Q.** And the IC50 (JAK1 JH2 553-836-His)?
**A.** Its IC50 is 110 µM.
